# Tested on: anoxic encephalopathy and ischemic events
# Test: Clinical case reports of patients with anoxic encephalopathy or ischemic events treated with N-acetylcystein
# Assay type: in vivo, human
# Source text: A person was admitted to the intensive care unit in a deep coma. Several hours prior to the admission, they suffered from a persistent ventricular arrhythmia that led to a cardiac arrest. They required nine successive electroshocks in order to reestablish their regular cardiac rhythm. The total interruption time of their blood supply to the brain was considered to be more than ten minutes. […] Their pupils were fixed and dilated, and they were placed on a mechanical ventilation. As they were unable to trigger the ventilator by themself, they were placed on an automatic mode of mechanical ventilation. There was no improvement in their condition over the next forty-eight hours. A neurologist determined their condition to be irreversible and hopeless. A second neurologist concurred. During the forty-eight hour interval, the patient was given 600 mg of N-acetylcystein in a twenty percent solution, administered via a nasal-gastric tube every twelve hours. […] They awakened and was able to communicate by head nods and facial expressions.
# A high school teacher went into a cardiac arrest while driving in their car. By the time they arrived at a hospital emergency room and was resuscitated, a period of twenty to thirty minutes of an interruption of the blood supply to the brain had elapsed. Even though the cardiac resuscitation efforts were successful, they remained in a deep coma, a vegetative state, and required a life supporting mechanical ventilation. Over the next two years, they remained on mechanical ventilation, gastrostomy tube feedings, and in a coma without any improvement in their cerebral or neurological functions. Their prognosis for recovery was considered hopeless.
# Approximately two years after the cardiac arrest, they were administered 600 mg of N-acetylcystein in a twenty percent solution twice daily. Over the next several months, they made a remarkable recovery. […] They became alert and able to respond initially to tacit and aural stimuli, and later they were able to understand simple sentences.
# A person lapsed into a coma from a cerebral hemorrhage secondary to a vascular stroke. As their condition continued to deteriorate, they required a life supporting mechanical ventilation. Several months later they developed a brain abscess that required a craniotomy. This was followed by the appearance of an intense seizure disorder.
# Following the surgery, it became possible to gradually wean […] from the respirator, but […] remained in a semi-vegetative state, unable to respond to aural stimuli and fed by a gastrostomy tube. […] remained completely bedridden.
# More than three years after the initial event, they were administered 600 mg of N-acetylcystein in a twenty percent solution twice daily via their gastrostomy tube. Over the next several months, they made a remarkable recovery. […] By the third month of treatment, they were able to sit in a wheelchair and express their wishes to be driven around the facility where they resided. By the fourth month of the treatment, they regained the capacity to express themself verbally even though it was restricted to a vocabulary of mono and disyllabic words. They also regained the ability to lift their head, which i previously lay flexed upon their chest, without the use of an assisting device. […] Their neurological and cerebral recoveries continued to progress.
# A medical technician experienced a series of multiple strokes that led to a semi-comatose state lasting more than two years. Their medical condition deteriorated over time with the development of multi-organ failures. They required a mechanical ventilation and hemo-dialysis for life support. Three years after the onset of their condition and several months after all efforts to wean them from the respirator failed, they were initially administered 600 mg of N-acetylcystein in a twenty percent solution twice daily via a gastrostomy tube.
compound,measurement,setting,value
CC(=O)N[C@@H](CS)C(=O)O [N-acetylcystein],Overall therapeutic efficacy indicated by the four cases,acute phase and many months or years after the initial event,reversing a coma as well as other neurological deficits
same,"Breathing / respirator dependence, Case No. 1","person on mechanical ventilation, 600 mg every twelve hours via nasal-gastric tube, forty-eight hour period",able to breath partially on their own without the respirator
same,"Coma / neurological outcome, Case No. 2","person, coma for two years after cardiac arrest, 600 mg in twenty percent solution twice daily, over several months",awakened from their coma
same,"Verbal response, Case No. 2","person, coma for two years, 600 mg twice daily, by the fourth month of treatment",able to respond verbally
same,"Coma / neurological outcome, Case No. 1","person, deep coma after cardiac arrest, 600 mg in twenty percent solution via nasal-gastric tube every twelve hours, forty-eight hour period",completely revived from their coma
same,"Respirator dependence, Case No. 4","person, multiple strokes, semi-comatose, ventilated, 600 mg twice daily via gastrostomy tube increased to 2400 mg daily",improved and no longer needed the respirator
same,"Ambulation, Case No. 3","person, previously bedridden, 600 mg twice daily via gastrostomy tube, by the fifth month of treatment",able to ambulate more than one hundred steps with the aid of a walker or the wheelchair
same,"Neurological outcome, Case No. 3","person, semi-vegetative state more than three years after cerebral hemorrhage/stroke, 600 mg twice daily via gastrostomy tube, over several months",became completely alert and able to respond to simple verbal commands
same,"Respirator dependence, Case No. 2","person, two years on mechanical ventilation, 600 mg twice daily",no longer needed the respirator

# Reference: patent US20020165281A1, “Treatment of anoxic encephalophathy by administration of N-acetylcystein” (priority 2001, published 2002)
